Assay results as given in patent US9446093B2, “Injectable aqueous ophthalmic composition and method of use therefor” (Alcon Research Ltd., priority 2009, dated 2016).

Experiment: pKa, charge and solubility of the amine groups of the polymer

Poly-L-lysine
pKa value of the amine groups: approximately 10.5
